Key:
MCF-7 cells [1] = experiment: LC/MS metabolite profiling of MCF-7 cells; assay type: cell-based, human
Experimental: To understand the metabolic impact of GLUT inhibition by RgA, the steady-state levels of 272 metabolites was determined using LC/MS, Liu et al, Anal. Chem. 2014, 86, 2175-2184, in MCF-7 cells upon treatment with RgA for 30 min and 6 h, respectively.
MCF-7 Cells were seeded into 6-well plate at a density of 5×10^5 cells per well, allowed to recover overnight and subsequently treated with RgA or vehicle control for 30 min and 6 h, respectively. Metabolites were extracted and analyzed as previously described. Liu et al., Anal. Chem. 2014, 86, 2175-2184.

HCC1954 xenograft = experiment: HCC1954 breast cancer xenograft in nude mice; assay type: in vivo
Experimental: Given that RgA inhibited multiple isoforms of GLUTs, including GLUT1, 3, and 4, it raised the question of whether animals could tolerate RgA. As breast cancer cell lines are more sensitive to RgA than other cell lines (FIG. 6A and Table 3), the anti-breast cancer activity of RgA in vivo was assessed. Two breast cancer cell lines were selected for the xenograft experiment-MCF-7, an ER+, HER2− line, and HCC1954, an ER−, HER2+ breast line. NSG mice bearing MCF-7 tumors were given daily vehicle or RgA at a dose of 2 mg/kg for […].
All animal studies were conducted in compliance with all relevant ethical regulations set forth by the Johns Hopkins University Animal Care and Use Committee (ACUC). Female mice aged 4-6 weeks and weighing 18-22 g were maintained in a pathogen-free facility at Johns Hopkins Medical Institutions and cared for according to National Institutes of Health guidelines and under a protocol approved by the Johns Hopkins University Animal Care Committee. For the xenograft experiment of MCF-7, 17β-estradiol pellets (0.72 mg per pellet, 60-day release, Innovative Research of America, FL) were implanted at 5 days prior to tumor cell injection. […] The tumor volume was measured periodically using a Vernier caliper and calculated according to the modified ellipsoid formula: tumor volume (mm^3)=(short axis)^2×(long axis)×π/6. […]

PANC10.05 = experiment: [3H]-2DG uptake assay in PANC10.05 cells; assay type: cell-based, human; details: PANC 10.05
Experimental: (§1) Hay, Nat. Rev. […] To determine whether RgA could inhibit glucose uptake in cancer cell lines in addition to A549, the impact of RgA on [3H]-2DG uptake in six other cancer cell lines, including HCC1954, MCF-7, PANC10.05, Jurkat T, HeLa, and RKO was measured (FIG. 3A, Table 3).
(§2) The inhibitory activity of compounds on glucose transport was analyzed by measuring the cell uptake of [3H]-2DG as previously described. Ulanovskaya et al., Chem. Biol. 2011, 18, 222-230. Briefly, cells were washed twice and incubated in low-glucose medium for 10 min. Cells were added drugs and incubated for another 10 min before adding [3H]-2DG. After 10 min incubation with [3H]-2DG, cells were washed twice and lysed with 0.2 N NaOH plus 0.2% SDS. The cell lysate was transferred to a new tube containing 1 mL of optiphase supermix. Glucose uptake was quantified with a scintillation counter.

AMPK and mTOR activity = experiment: Western blot of AMPK and mTOR (S6K) activity in MCF-7 cells; assay type: cell-based, human; details: MCF-7, time- and dose-dependent
From the text: The increase in AMP/ATP ratio, in turn, is expected to activate AMPK, leading to the inhibition of the mTOR signaling pathway. Liu et al., Mol. Cancer Ther. 2012, 11, 1672-1682; Head et al., ACS Chem. Biol. 2017, 12, 174-182. The effect of RgA on AMPK and mTOR activity in MCF-7 cells was therefore determined.
For western blot analysis, cells were harvested and lysed by RIPA buffer plus protease inhibitor. Cell lysates or samples from pull-down experiment were subjected to SDS/PAGE and then transferred to a nitrocellulose membrane. Membranes were first blocked in 5% (wt/vol) BSA in Tris-buffered saline plus 0.1% Tween 20 (TBST) at room temperature for 30 min and incubated with primary antibodies at 4° C. for overnight. Membranes were then washed three times with TBST and incubated with secondary antibodies at room temperature for another 1 h. Membranes were washed with TBST three times again and incubated with ECL substrate for 1 min at room temperature. Pictures were captured using a GeneSys Image Station.

MCF-7 cells [2] = experiment: cell cycle analysis of MCF-7 cells; assay type: cell-based, human; details: MCF-7, 5 μM, 24 h
Experimental: The effects of RgA on cell growth, survival, and cell death was then determined. […] Treatment with 5 μM of RgA caused an increase in G1 phase by approximately 23% in comparison to control and approximately 7% and 17% decreases in cells in S and G2/M phases, respectively. The induction in G1 phase cell cycle arrest by RgA is dose-dependent (FIG. 5A, FIG. 16). […] Jones and Thompson, Genes Dev. 2009, 23, 537-548. […] The IC50 values of RgA against several human cancer cell lines also was determined using the alamar blue cell proliferation assay.
MCF-7 cells were seeded at 5×10^5 cells/15 cm dish, allowed to recover overnight and subsequently treated with drugs or vehicle control for 24 h. Media was then collected and set aside. Cells were washed with PBS, trypsinized, combined with set aside media, pelleted at 500×g and then washed with 10 mL PBS followed by another 500×g spin. The pellet was resuspended in 0.5 mL PBS and added dropwise using a Pasteur pipette to 2 mL 75% ethanol in a 5 mL polystyrene tube being slowly agitated by a vortex. The cells were stored at 4° C. until staining. To do so, cells were pelleted at 500×g, resuspended in 5 mL PBS, rested for 60 seconds, pelleted again and washed by 5 mL PBS. The cell pellet was then resuspended in 0.5 mL staining solution (0.1% Triton-X-100, 0.2 mg/mL DNase free RNase A, and 0.02 mg/mL propidium iodide). Cells were allowed to stain for 30 min prior for analysis. Propidium iodide incorporation was measured using a FACSCalibur. The percentage of cells in each cell cycle stage was determined with FlowJo (v7.5.5) using a Watson analysis.

HCC1954 = experiment: [3H]-2DG uptake assay in HCC1954 cells; assay type: cell-based, human
Experimental: as §1, §2

[3] = MCF-7, 30 min and 6 h treatment

SMILES: CCC(C)C1C(=O)NCC(=O)N(C)CCC=CC(=O)OCC(C)(C)C(=O)C(=O)N2CCCCC2C(=O)OC(CCc2ccc(OC)c(OC)c2)c2cccc(c2)NC(=O)CCC(=O)N(C)C(CC(C)C)C(=O)NC(Cc2ccccc2)C(=O)N1C (stereo not drawn) [JW11-D2, Rapaglutin A]
- cellular ATP level and AMP/ATP ratio (MCF-7 cells [1]; MCF-7): increase in the AMP/ATP ratio
- TCA cycle and redox status (MCF-7 cells [1]; [3]): not significantly affected
- upper glycolytic and pentose phosphate pathway intermediates (G6P, F1,6-BP, DHAP, 6PGA, R5P, E4P) (MCF-7 cells [1]; [3]): significant decreases
- tumor volume index on day 38 (HCC1954 xenograft; HCC1954 in nude mice, 2 mg/kg intraperitoneally daily, vehicle 26.14): 12.97
- weight loss and signs of adverse effects (HCC1954 xenograft; HCC1954 xenograft mice, 2 mg/kg daily): no significant weight loss or any signs of adverse effects
- IC50 (PANC10.05): 9.5 nM
- AMPK activity (AMPK and mTOR activity): activated AMPK
- mTOR activity (AMPK and mTOR activity): inhibited mTOR activity
- decrease in cells in G2/M phase (MCF-7 cells [2]): ~17%
- decrease in cells in S phase (MCF-7 cells [2]): approximately 7%
- increase in G1 phase in comparison to control (MCF-7 cells [2]): approximately 23%
- IC50 (HCC1954): 8.3 nM
